Literature values as cited in paper PMC12642135 (Food and Waterborne Parasitology, 2025).
“Also recorded” adds a separate entry of the source.

Test system: Toxoplasma gondii
Parameters: method as in Kul et al., 2013
Settings: lambs, applied from the second week pi (day 14 pi) onwards; ref Kul et al., 2013

## Cc1cc(-n2c(=O)[nH]c(=O)n(C)c2=O)ccc1Oc1ccc(SC(F)(F)F)cc1 [toltrazuril]
  Reduction of tissue cysts: mildly reduced; also recorded: partial reduction
